Values after ≈ are worked out from the molar mass of the structure shown. Each block holds one molecule with its values, some of them ahead of it.
What was measured:
Assay in all cases: ≥ marks a high value that may be exact or a test limit, other limits are often not marked, values filed in µg/mL are converted to µM
[1] = system: Staphylococcus aureus ATCC 25325
[2] = system: Enterococcus faecalis ATCC 29212
[3] = system: Escherichia coli ATCC 35218
[4] = system: Pseudomonas aeruginosa ATCC 27853
[5] = system: Klebsiella aerogenes CGMCC 1.876
[6] = system: Enterococcus faecium CGMCC 1.2334
[7] = system: Fusobacterium nucleatum CGMCC 1.2526
[8] = system: Lactococcus lactis AS1.1690
[9] = system: Pseudomonas aeruginosa CGMCC 1.860
[10] = system: Candida albicans CMCC 98001
[11] = system: Streptococcus mutans CGMCC 1.2500
[12] = system: Enterobacter cloacae CGMCC 1.58
[13] = system: Staphylococcus aureus AS1.72
[14] = system: Streptococcus salivarius CGMCC 1.2498
[15] = system: Escherichia coli AS1.349
[16] = system: Klebsiella pneumoniae subsp. pneumoniae CGMCC 1.176
[17] = system: Enterococcus faecalis CGMCC 1.595
[18] = system: Bacillus cereus AS1.126
[19] = system: Lactobacillus acidophilus CGMCC 1.1854
[20] = system: Streptococcus sanguinis CGMCC 1.2497
[21] = system: Acinetobacter sp.
[22] = system: Pseudomonas aeruginosa ATCC 25668
[23] = system: Escherichia coli ATCC 11775
[24] = system: Escherichia coli
[25] = system: Bacillus subtilis ATCC 6633
[26] = system: Bacillus subtilis ATCC 9372
[27] = system: Bacillus anthracis Sterne 34F2
[28] = system: Burkholderia thailandensis
[29] = system: Staphylococcus epidermidis ATCC 12228
[30] = system: Serratia marcescens ATCC 8100
[31] = system: Escherichia coli D21
[32] = system: Escherichia coli ML-35
[33] = system: Bacillus megaterium Bm11
[34] = system: Salmonella enterica subsp. enterica serovar Typhimurium ATCC 14028

Structure (SMILES): CC[C@H](C)[C@H](N)C(=O)N[C@@H](CCCCN)C(=O)N[C@@H](CCCCN)C(=O)N[C@H](C(=O)N[C@H](C(=O)N[C@@H](CO)C(=O)N[C@@H](CCCCN)C(=O)N[C@H](C(=O)N[C@@H](CCCCN)C(=O)N[C@@H](CCCCN)C(=O)N[C@H](C(=O)N[C@@H](CC(C)C)C(=O)N[C@@H](CCCCN)C(N)=O)C(C)C)[C@@H](C)CC)C(C)C)[C@@H](C)CC [IKKIVSKIKKVLK]
MIC [5]: 7.81 µM (≈ 11.9 µg/mL)
MIC [6]: 7.81 µM (≈ 11.9 µg/mL)
MIC [7]: 6.25 µM (≈ 9.53 µg/mL)
MIC [8]: 3.12 µM (≈ 4.76 µg/mL)
MIC [9]: 6.25 µM (≈ 9.53 µg/mL)
MIC [10]: 6.25 µM (≈ 9.53 µg/mL)
MIC [11]: 6.25 µM (≈ 9.53 µg/mL)
MIC [12]: 7.81 µM (≈ 11.9 µg/mL)
MIC [13]: 6.25 µM (≈ 9.53 µg/mL)
MIC [14]: 6.25 µM (≈ 9.53 µg/mL)
MIC [15]: 6.25 µM (≈ 9.53 µg/mL)
MIC [16]: 6.25 µM (≈ 9.53 µg/mL)
MIC [17]: 7.81 µM (≈ 11.9 µg/mL)
MIC [18]: 3.12 µM (≈ 4.76 µg/mL)
MIC [19]: 6.25 µM (≈ 9.53 µg/mL)
MIC [20]: 6.25 µM (≈ 9.53 µg/mL)

Structure (SMILES): CSCC[C@H](NC(=O)[C@@H](NC(=O)[C@H](CC(N)=O)NC(C)=O)C(C)C)C(=O)N[C@H](C(=O)N[C@@H](Cc1ccc(O)cc1)C(=O)N[C@@H](Cc1c[nH]c2ccccc12)C(=O)N[C@@H](Cc1c[nH]c2ccccc12)C(=O)N[C@@H](CC(C)C)C(=O)N[C@@H](CC(=O)O)C(=O)N1CCC[C@H]1C(=O)N1CCC[C@H]1C(=O)N[C@@H](CC(C)C)C(N)=O)[C@@H](C)O [NVMTYWWLDPPL]
MIC [26]: ≥ 100 µM
MIC [27]: ≥ 100 µM
MIC [28]: ≥ 50 µM

Structure (SMILES): CC(C)C[C@H](NC(=O)[C@H](Cc1ccc(O)cc1)NC(=O)[C@@H]1CCCN1C(=O)[C@@H]1CCCN1C(=O)[C@H](CCCN=C(N)N)NC(=O)[C@@H]1CCCN1C(=O)[C@H](CCCN=C(N)N)NC(=O)[C@H](CCCN=C(N)N)NC(=O)[C@@H](N)CCCN=C(N)N)C(=O)N1CCC[C@H]1C(=O)N[C@@H](CCCN=C(N)N)C(=O)N1CCC[C@H]1C(=O)N[C@@H](CCCN=C(N)N)C(=O)N1CCC[C@H]1C(=O)N1CCC[C@H]1C(=O)O [RRRPRPPYLPRPRPP]
MIC [29]: > 64 µM
MIC [30]: 4 µM (≈ 7.65 µg/mL)
MIC [31]: 0.5 µM (≈ 0.956 µg/mL)
MIC [32]: 1 µM (≈ 1.91 µg/mL)
MIC [33]: 8 µM (≈ 15.3 µg/mL)
MIC [34]: 0.125 µM (≈ 0.239 µg/mL)

The next lines start with the values.

MIC [1]: ≥ 58 µM
MIC [2]: 57 µM (≈ 79.3 µg/mL)
MIC [3]: ≥ 43.6 µM
MIC [4]: 52 µM (≈ 72.4 µg/mL)
Structure (SMILES): CC(C)[C@H](NC(=O)[C@H](Cc1cnc[nH]1)NC(=O)[C@H](C)NC(=O)[C@H](C)NC(=O)[C@H](CCCCN)NC(=O)[C@H](CCCCN)NC(=O)[C@H](Cc1ccccc1)NC(=O)[C@H](Cc1ccccc1)NC(=O)[C@H](CO)NC(=O)CNC(=O)[C@H](Cc1c[nH]c2ccccc12)NC(=O)CN)C(=O)NCC(=O)O [GWGSFFKKAAHVG]

MIC [21]: 2.51 µM (≈ 4.1 µg/mL)
MIC [22]: 0.629 µM (≈ 1.03 µg/mL)
MIC [23]: 0.629 µM (≈ 1.03 µg/mL)
MIC [24]: 1.26 µM (≈ 2.05 µg/mL)
MIC [25]: 2.51 µM (≈ 4.1 µg/mL)
Structure (SMILES): CC[C@H](C)[C@H](NC(C)=O)C(=O)N[C@@H](CCCCN)C(=O)N[C@@H](Cc1c[nH]c2ccccc12)C(=O)N[C@@H](C)C(=O)NCC(=O)N[C@@H](CCCCN)C(=O)N[C@@H](Cc1c[nH]c2ccccc12)C(=O)N[C@@H](Cc1c[nH]c2ccccc12)C(=O)N[C@@H](CCCCN)C(=O)N[C@@H](CC(C)C)C(=O)N[C@@H](Cc1ccccc1)C(=O)N[C@@H](CCCCN)C(N)=O [IKWAGKWWKLFK]
